Reference: patent publication US9765092B2, “Tricyclic piperidine compounds” (ACTELION PHARMACEUTICALS LTD, priority 2013, dated 2017)

Target: human TPH1 (Homo sapiens (Human), UniProt P17752)
Assay: Biochemical in vitro assay using fluorescence readout (TPH1 inhibition)
Conditions: full length human TPH1, 40 μM L-tryptophan, 15° C., 60 minutes, fluorescence at 540 nm; mean if determined several times

human TPH1, sequence (P17752 whole entry): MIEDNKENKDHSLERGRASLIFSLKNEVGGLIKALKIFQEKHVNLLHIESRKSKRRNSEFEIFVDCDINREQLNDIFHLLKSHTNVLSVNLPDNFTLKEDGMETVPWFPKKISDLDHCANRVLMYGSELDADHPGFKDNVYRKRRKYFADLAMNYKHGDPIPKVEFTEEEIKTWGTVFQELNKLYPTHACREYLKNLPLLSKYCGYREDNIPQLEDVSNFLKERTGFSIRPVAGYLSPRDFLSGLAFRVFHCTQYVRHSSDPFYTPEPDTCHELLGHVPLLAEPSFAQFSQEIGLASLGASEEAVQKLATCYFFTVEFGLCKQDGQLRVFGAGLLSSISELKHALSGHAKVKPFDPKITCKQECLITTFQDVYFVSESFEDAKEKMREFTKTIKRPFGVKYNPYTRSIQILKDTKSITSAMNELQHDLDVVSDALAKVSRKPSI

Row | SMILES | IC50 [nM]
1 | Cc1nn2c3c(nc2s1)CCN(C(=O)COc1ccc(N(C)CCO)nc1Cl)C3c1ccc(Cl)cc1F (stereo not shown) [Example 1.4.13, 1-(5-(4-Chloro-2-fluorophenyl)-2-methyl-7,8-dihydro-[1,3,4]thiadiazolo[2′,3′:2,3]imidazo[4,5-c]pyridin-6(5H)-yl)-2-((2-chloro-6-((2-hydroxyethyl)-(methyl)amino)pyridin-3-yl)oxy)ethanone] | 5
2 | Cc1nn2c3c(nc2s1)CCN(C(=O)COc1ccc(N2CCCC2=O)nc1Cl)C3c1ccc(Cl)cc1F (stereo not shown) [Example 1.4.17, 1-(6-Chloro-5-(2-(5-(4-chloro-2-fluorophenyl)-2-methyl-7,8-dihydro-[1,3,4]thiadiazolo[2′,3′:2,3]imidazo[4,5-c]pyridin-6(5H)-yl)-2-oxoethoxy)pyridin-2-yl)pyrrolidin-2-one] | 2
3 | Cc1nn2c3c(nc2s1)CCN(C(=O)COc1ccc(NS(=O)(=O)C2CC2)cc1Cl)C3c1ccc(Cl)cc1F (stereo not shown) [Example 1.4.30, N-(3-Chloro-4-(2-(5-(4-chloro-2-fluorophenyl)-2-methyl-7,8-dihydro-[1,3,4]thiadiazolo[2′,3′:2,3]imidazo[4,5-c]pyridin-6(5H)-yl)-2-oxoethoxy)phenyl)cyclo-propanesulfonamide] | 10
4 | Cc1nn2c3c(nc2s1)CCN(C(=O)COc1ccc(NS(=O)(=O)C2CC2)nc1Cl)C3c1ccc(Cl)cc1F (stereo not shown) [Example 1.4.16, N-(6-Chloro-5-(2-(5-(4-chloro-2-fluorophenyl)-2-methyl-7,8-dihydro-[1,3,4]thiadiazolo[2′,3′:2,3]imidazo[4,5-c]pyridin-6(5H)-yl)-2-oxoethoxy)pyridin-2-yl)-cyclopropanesulfonamide] | 7
5 | Cc1nn2c3c(nc2s1)CCN(C(=O)COc1ccc(N2CCOCC2)nc1Cl)C3c1cnc(N(C)C)s1 (stereo not shown) [Example 1.22.1, 2-((2-Chloro-6-morpholinopyridin-3-yl)oxy)-1-(5-(2-(dimethylamino)-thiazol-5-yl)-2-methyl-7,8-dihydro[1,3,4]thiadiazolo[2′,3′:2,3]imidazo[4,5-c]pyridin-6(5H)-yl)ethanone] | 7

Same assay, conditions: human TPH1, fluorescence readout

Row | SMILES | IC50 [nM]
6 | CCc1nc(NS(C)(=O)=O)ccc1OCC(=O)N1CCc2nc3sc(C)nn3c2C1c1ccc(C)c(F)c1F (stereo not shown) [Example 1.61.5, N-(5-(2-(5-(2,3-difluoro-4-methylphenyl)-2-methyl-7,8-dihydro-[1,3,4]thiadiazolo[2′,3′:2,3]imidazo[4,5-c]pyridin-6(5H)-yl)-2-oxoethoxy)-6-ethylpyridin-2-yl)methanesulfonamide] | 9
7 | Cc1nn2c3c(nc2s1)CCN(C(=O)COc1ccc(C#N)cc1Cl)C3c1sc(C(=O)N(C)C)cc1F (stereo not shown) [Example 1.24.8, 5-(6-(2-(2-chloro-4-cyanophenoxy)acetyl)-2-methyl-5,6,7,8-tetrahydro-[1,3,4]thiadiazolo[2′,3′:2,3]imidazo[4,5-c]pyridin-5-yl)-4-fluoro-N,N-dimethylthiophene-2-carboxamide] | 14
8 | COCc1ccc(C2c3c(nc4sc(C)nn34)CCN2C(=O)COc2ccc(NS(C)(=O)=O)nc2Cl)c(F)c1 (stereo not shown) [Example 1.82.1, N-(6-chloro-5-(2-(5-(2-fluoro-4-(methoxymethyl)phenyl)-2-methyl-7,8-dihydro-[1,3,4]thiadiazolo[2′,3′:2,3]imidazo[4,5-c]pyridin-6(5H)-yl)-2-oxoethoxy)pyridin-2-yl)methanesulfonamide] | 17
9 | Cc1nn2c3c(nc2s1)CCN(C(=O)COc1ccc(N2CCCC2)nc1C)C3c1ccc(C2CC2)cc1F (stereo not shown) [Example 1.6.16, 1-(5-(4-cyclopropyl-2-fluorophenyl)-2-methyl-7,8-dihydro-[1,3,4]thiadiazolo[2′,3′:2,3]imidazo[4,5-c]pyridin-6(5H)-yl)-2-((2-methyl-6-(pyrrolidin-1-yl)pyridin-3-yl)oxy)ethanone] | 13
10 | Cc1nn2c3c(nc2s1)CCN(C(=O)COc1ccc(C(=O)N(C)C)nc1Cl)C3c1sc(C(=O)N(C)C)cc1F (stereo not shown) [Example 1.24.7, 6-chloro-5-(2-(5-(5-(dimethylcarbamoyl)-3-fluorothiophen-2-yl)-2-methyl-7,8-dihydro-[1,3,4]thiadiazolo[2′,3′:2,3]imidazo[4,5-c]pyridin-6(5H)-yl)-2-oxoethoxy)-N,N-dimethylpicolinamide] | 5
11 | Cc1nn2c3c(nc2s1)CCN(C(=O)COc1ccc(N2CCCS2(=O)=O)nc1Cl)C3c1ccc(Cl)cc1F (stereo not shown) [Example 1.4.49, 1-(5-(4-chloro-2-fluorophenyl)-2-methyl-7,8-dihydro-[1,3,4]thiadiazolo[2′,3′:2,3]imidazo[4,5-c]pyridin-6(5H)-yl)-2-((2-chloro-6-(1,1-dioxidoisothiazolidin-2-yl)pyridin-3-yl)oxy)ethanone] | 9
12 | O=C(COc1ccc(CN2CCOCC2)nc1Cl)N1CCc2nc3sccn3c2C1c1ccc(Cl)cc1F (stereo not shown) [Example 6.4.5, 1-(5-(4-chloro-2-fluorophenyl)-7,8-dihydrothiazolo-[2′,3′:2,3]imidazo[4,5-c]pyridin-6(5H)-yl)-2-((2-chloro-6-(morpholinomethyl)pyridin-3-yl)oxy)ethanone] | 7
13 | Cc1nn2c3c(nc2s1)CCN(C(=O)COc1cnc(N(C)C)nc1Cl)C3c1sccc1F (stereo not shown) [Example 1.23.11, 2-((4-chloro-2-(dimethylamino)pyrimidin-5-yl)oxy)-1-(5-(3-fluorothiophen-2-yl)-2-methyl-7,8-dihydro-[1,3,4]thiadiazolo[2′,3′:2,3]imidazo[4,5-c]pyridin-6(5H)-yl)ethanone] | 6
14 | CN(C)C(=O)c1ccc(OCC(=O)N2CCc3nc4sccn4c3C2c2sccc2F)c(Cl)n1 (stereo not shown) [Example 6.8.2, 6-chloro-5-(2-(5-(3-fluorothiophen-2-yl)-7,8-dihydro-thiazolo[2′,3′:2,3]imidazo[4,5-c]pyridin-6(5H)-yl)-2-oxoethoxy)-N,N-dimethylpicolinamide] | 5
15 | CCc1ncccc1OCC(=O)N1CCc2nc3sc(C)nn3c2C1c1nc(-c2ccccc2)no1 (stereo not shown) [Example 1.11.2, 2-((2-ethylpyridin-3-yl)oxy)-1-(2-methyl-5-(3-phenyl-1,2,4-oxadiazol-5-yl)-7,8-dihydro-[1,3,4]thiadiazolo[2′,3′:2,3]imidazo[4,5-c]pyridin-6(5H)-yl)ethanone] | 141
16 | Cc1nn2c3c(nc2s1)CCN(C(=O)COc1ccc(C#N)nc1Cl)C3c1ccc(Cl)nc1F (stereo not shown) [Example 1.16.5, 6-chloro-5-(2-(5-(6-chloro-2-fluoropyridin-3-yl)-2-methyl-7,8-dihydro-[1,3,4]thiadiazolo[2′,3′:2,3]imidazo[4,5-c]pyridin-6(5H)-yl)-2-oxoethoxy)picolinonitrile] | 35
17 | Cc1nn2c3c(nc2s1)CCN(C(=O)COc1ccc(N(C)C)nc1Cl)C3c1ccc(Cl)cc1F (stereo not shown) [Example 1.4.7, 1-(5-(4-chloro-2-fluorophenyl)-2-methyl-7,8-dihydro-[1,3,4]thiadiazolo[2′,3′:2,3]imidazo[4,5-c]pyridin-6(5H)-yl)-2-((2-chloro-6-(dimethylamino)pyridin-3-yl)oxy)ethanone] | 6
18 | CCNC(=O)Nc1nc(C2c3c(nc4sc(C)nn34)CCN2C(=O)COc2ccc(N3CCOCC3)nc2Cl)cs1 (stereo not shown) [Example 1.47.1, 1-(4-(6-(2-((2-chloro-6-morpholinopyridin-3-yl)oxy)acetyl)-2-methyl-5,6,7,8-tetrahydro-[1,3,4]thiadiazolo[2′,3′:2,3]imidazo[4,5-c]pyridin-5-yl)thiazol-2-yl)-3-ethylurea] | 18
19 | Cc1ccc(OCC(=O)N2CCc3nc4sc(C)nn4c3C2c2ccc(C3CC3)cc2F)c(C)n1 (stereo not shown) [Example 1.6.3, 1-(5-(4-cyclopropyl-2-fluorophenyl)-2-methyl-7,8-dihydro-[1,3,4]thiadiazolo[2′,3′:2,3]imidazo[4,5-c]pyridin-6(5H)-yl)-2-((2,6-dimethylpyridin-3-yl)oxy)ethanone] | 13
20 | Cc1nn2c3c(nc2s1)CCN(C(=O)COc1ccc(C(F)(F)F)nc1)C3c1ccc(C2CC2)cc1F (stereo not shown) [Example 1.6.4, 1-(5-(4-cyclopropyl-2-fluorophenyl)-2-methyl-7,8-dihydro-[1,3,4]thiadiazolo[2′,3′:2,3]imidazo[4,5-c]pyridin-6(5H)-yl)-2-((6-(trifluoromethyl)pyridin-3-yl)oxy)ethanone] | 68
21 | O=C(COc1ccc(Cl)cc1Cl)N1CCc2nc3sccn3c2C1c1cnn(-c2ccccc2)c1 (stereo not shown) [Example 6.13.2, 2-(2,4-dichlorophenoxy)-1-(5-(1-phenyl-1H-pyrazol-4-yl)-7,8-dihydrothiazolo[2′,3′:2,3]imidazo[4,5-c]pyridin-6(5H)-yl)ethanone] | 50
22 | Cc1cnc(C2c3c(nc4sc(C)nn34)CCN2C(=O)COc2ccc(C(=O)N(C)C)nc2Cl)c(F)c1 (stereo not shown) [Example 1.31.7, 6-chloro-5-(2-(5-(3-fluoro-5-methylpyridin-2-yl)-2-methyl-7,8-dihydro-[1,3,4]thiadiazolo[2′,3′:2,3]imidazo[4,5-c]pyridin-6(5H)-yl)-2-oxoethoxy)-N,N-dimethylpicolinamide] | 6
23 | Cc1nn2c3c(nc2s1)CCN(C(=O)COc1ccc(NS(C)(=O)=O)nc1Cl)C3c1ncc(C2CC2)cc1F (stereo not shown) [Example 1.14.13, N-(6-chloro-5-(2-(5-(5-cyclopropyl-3-fluoropyridin-2-yl)-2-methyl-7,8-dihydro-[1,3,4]thiadiazolo[2′,3′:2,3]imidazo[4,5-c]pyridin-6(5H)-yl)-2-oxoethoxy)pyridin-2-yl)methanesulfonamide] | 7
24 | Cc1nn2c3c(nc2s1)CCN(C(=O)COc1ccc(N2CCOCC2)nc1Cl)C3c1coc(-c2ccccc2)n1 (stereo not shown) [Example 1.12.1, 2-((2-chloro-6-morpholinopyridin-3-yl)oxy)-1-(2-methyl-5-(2-phenyloxazol-4-yl)-7,8-dihydro-[1,3,4]thiadiazolo [2′,3′:2,3]imidazo[4,5-c]pyridin-6(5H)-yl)ethanone] | 14
25 | Cc1nc(C)c(C2c3c(nc4sc(C)nn34)CCN2C(=O)COc2ccc(N(C)S(C)(=O)=O)nc2Cl)s1 (stereo not shown) [Example 1.68.6, N-(6-chloro-5-(2-(5-(2,4-dimethylthiazol-5-yl)-2-methyl-7,8-dihydro-[1,3,4]thiadiazolo[2′,3′:2,3]imidazo[4,5-c]-pyridin-6(5H)-yl)-2-oxoethoxy)pyridin-2-yl)-N-methylmethanesulfonamide] | 6
